Source: PubChem BioAssay AID248 (DTP/NCI, 2004)
Values joined by “and” are separate entries in the source; they are usually repeats but may differ in a detail not shown here. Equal entries are not always repeated. Inconclusive results and toxic doses are left out.

Tested on: L1210 leukemia ip in BDF1 mice, survival T/C
Assay: NCI In Vivo Anticancer Drug Screen. Data for tumor model L1210 Leukemia (intraperitoneal) in B6D2F1 (BDF1) mice
Settings: endpoint: mean survival time, higher = longer survival
Procedure, shortened: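 Transplantable tumor model; survival measured in treated vs vehicle control mice. Value = treated/control.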

[1] = dose: 100.0 mg/kg/injection, schedule: Q01DX001 (ip), vehicle: saline
[2] = dose: 100.0 mg/kg/injection, schedule: Q04DX002 (ip), vehicle: Klucel (hydroxypropylcellulose) (HPC)
[3] = dose: 200.0 mg/kg/injection, schedule: Q04DX002 (ip), vehicle: Klucel (hydroxypropylcellulose) (HPC)
[4] = dose: 400.0 mg/kg/injection, schedule: Q04DX002 (ip), vehicle: Klucel (hydroxypropylcellulose) (HPC)

SMILES: CN(N=O)C(=O)Nc1c[nH]c(=O)[nH]c1=O
- T/C (dose: 10.0 mg/kg/injection, schedule: Q01DX Z (ip), vehicle: carboxymethylcellulose (CMC)): 172 % of control
- T/C (dose: 20.0 mg/kg/injection, schedule: Q01DX Z (ip), vehicle: carboxymethylcellulose (CMC)): 207 % of control
- T/C (dose: 27.0 mg/kg/injection, schedule: Q01DX Z (ip), vehicle: saline): 151 % of control
- T/C (dose: 40.0 mg/kg/injection, schedule: Q01DX Z (ip), vehicle: carboxymethylcellulose (CMC)): 239 % of control
- T/C (dose: 40.5 mg/kg/injection, schedule: Q01DX Z (ip), vehicle: saline): 159 % of control
- T/C (dose: 50.0 mg/kg/injection, schedule: Q01DX Z (ip), vehicle: carboxymethylcellulose (CMC)): 165 % of control and 206 % of control
- T/C (dose: 60.0 mg/kg/injection, schedule: Q01DX Z (ip), vehicle: carboxymethylcellulose (CMC)): 183 % of control
- T/C (dose: 60.7 mg/kg/injection, schedule: Q01DX Z (ip), vehicle: saline): 162 % of control
- T/C (dose: 80.0 mg/kg/injection, schedule: Q01DX Z (ip), vehicle: carboxymethylcellulose (CMC)): 101 % of control
- T/C (dose: 91.1 mg/kg/injection, schedule: Q01DX Z (ip), vehicle: saline): 98 % of control
- T/C (dose: 240.0 mg/kg/injection, schedule: Q01DX001 (ip), vehicle: saline): 185 % of control
- T/C (dose: 480.0 mg/kg/injection, schedule: Q01DX001 (ip), vehicle: saline): 188 % of control
- T/C (dose: 960.0 mg/kg/injection, schedule: Q01DX001 (ip), vehicle: saline): 173 % of control

SMILES: CC(=O)c1ccc(P(=O)(O)O)cc1
- T/C (dose: 75.0 mg/kg/injection, schedule: Q01DX001 (ip), vehicle: saline): 96 % of control
- T/C (dose: 150.0 mg/kg/injection, schedule: Q01DX001 (ip), vehicle: saline): 102 % of control
- T/C (dose: 300.0 mg/kg/injection, schedule: Q01DX001 (ip), vehicle: saline): 98 % of control

SMILES: CCOC(=O)c1ccccc1N=Nc1cc(OC)c(N)cc1OC
- T/C (dose: 5.0 mg/kg/injection, schedule: Q01DX001 (ip), vehicle: other): 101 % of control
- T/C (dose: 10.0 mg/kg/injection, schedule: Q01DX001 (ip), vehicle: other): 111 % of control
- T/C (dose: 20.0 mg/kg/injection, schedule: Q01DX001 (ip), vehicle: other): 114 % of control

SMILES: COc1ccc(S(=O)(=O)NC(=O)NCCC=C(C)C)cc1
- T/C (dose: 50.0 mg/kg/injection, schedule: Q01DX009 (ip), vehicle: Klucel (hydroxypropylcellulose) (HPC)): 100 % of control
- T/C (dose: 100.0 mg/kg/injection, schedule: Q01DX009 (ip), vehicle: Klucel (hydroxypropylcellulose) (HPC)): 95 % of control
- T/C (dose: 100.0 mg/kg/injection, schedule: Q04DX003 (ip), vehicle: Klucel (hydroxypropylcellulose) (HPC)): 106 % of control
- T/C (dose: 200.0 mg/kg/injection, schedule: Q01DX009 (ip), vehicle: Klucel (hydroxypropylcellulose) (HPC)): 91 % of control
- T/C (dose: 200.0 mg/kg/injection, schedule: Q04DX003 (ip), vehicle: Klucel (hydroxypropylcellulose) (HPC)): 97 % of control
- T/C (dose: 400.0 mg/kg/injection, schedule: Q04DX003 (ip), vehicle: Klucel (hydroxypropylcellulose) (HPC)): 101 % of control

SMILES: CC1N=C(c2ccc(NC(=O)c3ccc(C(=O)Nc4ccc(C5=NC(C)C(C)N5)cc4)cc3)cc2)NC1C (configuration not stated)
- T/C (dose: 0.5 mg/kg/injection, schedule: Q01DX015 (ip), vehicle: water): 104 % of control
- T/C (dose: 0.75 mg/kg/injection, schedule: Q01DX001 (ip), vehicle: water): 101 % of control
- T/C (dose: 1.0 mg/kg/injection, schedule: Q01DX015 (ip), vehicle: water): 110 % of control
- T/C (dose: 1.5 mg/kg/injection, schedule: Q01DX001 (ip), vehicle: water): 98 % of control
- T/C (dose: 2.0 mg/kg/injection, schedule: Q01DX001 (ip), vehicle: water): 106 % of control
- T/C (dose: 3.0 mg/kg/injection, schedule: Q01DX001 (ip), vehicle: water): 103 % of control
- T/C (dose: 3.0 mg/kg/injection, schedule: Q01DX015 (ip), vehicle: water): 189 % of control
- T/C (dose: 4.0 mg/kg/injection, schedule: Q01DX015 (ip), vehicle: water): 222 % of control

SMILES: C[N+]1(C)CCOC(O)(c2ccccc2)C1 (configuration not stated)
- T/C (dose: 25.0 mg/kg/injection, schedule: Q01DX001 (ip), vehicle: saline): 88 % of control
- T/C (dose: 50.0 mg/kg/injection, schedule: Q01DX001 (ip), vehicle: saline): 98 % of control
- T/C [1]: 95 % of control and 101 % of control

SMILES: CCOC(=O)CNc1ccc(F)c(F)c1
- T/C [2]: 97 % of control
- T/C [3]: 90 % of control
- T/C [4]: 103 % of control

SMILES: O=C(CCl)NCc1ccc(Cl)cc1
- T/C (dose: 50.0 mg/kg/injection, schedule: Q01DX001 (ip), vehicle: other): 102 % of control
- T/C (dose: 100.0 mg/kg/injection, schedule: Q01DX001 (ip), vehicle: other): 93 % of control
- T/C (dose: 200.0 mg/kg/injection, schedule: Q01DX001 (ip), vehicle: other): 102 % of control

SMILES: COc1ccc(C(=O)Nc2ccccc2)cc1N
- T/C (dose: 50.0 mg/kg/injection, schedule: Q01DX009 (ip), vehicle: carboxymethylcellulose (CMC)): 96 % of control
- T/C (dose: 100.0 mg/kg/injection, schedule: Q01DX009 (ip), vehicle: carboxymethylcellulose (CMC)): 103 % of control
- T/C (dose: 200.0 mg/kg/injection, schedule: Q01DX009 (ip), vehicle: carboxymethylcellulose (CMC)): 94 % of control
- T/C (dose: 400.0 mg/kg/injection, schedule: Q01DX001 (ip), vehicle: carboxymethylcellulose (CMC)): 120 % of control
- T/C (dose: 400.0 mg/kg/injection, schedule: Q01DX009 (ip), vehicle: carboxymethylcellulose (CMC)): 100 % of control
- T/C (dose: 600.0 mg/kg/injection, schedule: Q01DX001 (ip), vehicle: carboxymethylcellulose (CMC)): 114 % of control
- T/C (dose: 800.0 mg/kg/injection, schedule: Q01DX001 (ip), vehicle: carboxymethylcellulose (CMC)): 118 % of control
- T/C (dose: 1000.0 mg/kg/injection, schedule: Q01DX001 (ip), vehicle: carboxymethylcellulose (CMC)): 114 % of control

SMILES: CSc1c(Cl)c(C(Cl)(Cl)Cl)nc2ccccc12
- T/C (dose: 12.5 mg/kg/injection, schedule: Q01DX009 (ip), vehicle: saline with Tween-80): 93 % of control
- T/C (dose: 25.0 mg/kg/injection, schedule: Q01DX009 (ip), vehicle: saline with Tween-80): 93 % of control
- T/C (dose: 50.0 mg/kg/injection, schedule: Q01DX009 (ip), vehicle: saline with Tween-80): 103 % of control and 104 % of control

SMILES: CCCCCCCCCCCCCCCCCCCOc1ccc(OCCCCCCCC)cc1
- T/C (dose: 100.0 mg/kg/injection, schedule: Q04DX003 (ip), vehicle: saline with Tween-80): 94 % of control
- T/C (dose: 200.0 mg/kg/injection, schedule: Q04DX003 (ip), vehicle: saline with Tween-80): 92 % of control
- T/C (dose: 400.0 mg/kg/injection, schedule: Q04DX003 (ip), vehicle: saline with Tween-80): 94 % of control

SMILES: COC(=O)C1C2C=CC(C3C=CC32)C1C(=O)OC (configuration not stated)
- T/C [2]: 103 % of control
- T/C [3]: 97 % of control
- T/C [4]: 103 % of control

SMILES: Nc1ccc(N=Nc2ccccc2)c(N)c1
- T/C (dose: 100.0 mg/kg/injection, schedule: Q01DX009 (ip), vehicle: saline): 95 % of control
- T/C (dose: 200.0 mg/kg/injection, schedule: Q01DX009 (ip), vehicle: saline): 101 % of control
- T/C (dose: 400.0 mg/kg/injection, schedule: Q01DX009 (ip), vehicle: saline): 95 % of control

SMILES: C(=NCC(CCN1CCCC1)(CCN1CCCC1)c1cccc2ccccc12)C(CCN1CCCC1)(CCN1CCCC1)c1cccc2ccccc12
- T/C (dose: 5.0 mg/kg/injection, schedule: Q01DX009 (ip), vehicle: saline with Tween-80): 106 % of control
- T/C (dose: 6.25 mg/kg/injection, schedule: Q04DX002 (ip), vehicle: saline): 92 % of control
- T/C (dose: 10.0 mg/kg/injection, schedule: Q01DX009 (ip), vehicle: saline with Tween-80): 106 % of control
- T/C (dose: 12.5 mg/kg/injection, schedule: Q04DX002 (ip), vehicle: saline): 101 % of control

SMILES: O=C1NC(=S)SC1C(Cc1ccccc1)Cc1ccccc1 (configuration not stated)
- T/C [1]: 97 % of control
- T/C (dose: 200.0 mg/kg/injection, schedule: Q01DX001 (ip), vehicle: saline): 97 % of control
- T/C (dose: 400.0 mg/kg/injection, schedule: Q01DX001 (ip), vehicle: saline): 101 % of control

SMILES: c1ccc(C(c2ccccc2)[P+](c2ccccc2)(c2ccccc2)c2ccccc2)cc1
- T/C (dose: 0.75 mg/kg/injection, schedule: Q01DX005 (ip), vehicle: gum acacia): 106 % of control and 110 % of control
- T/C (dose: 1.5 mg/kg/injection, schedule: Q01DX005 (ip), vehicle: gum acacia): 106 % of control
- T/C (dose: 1.5 mg/kg/injection, schedule: Q01DX009 (ip), vehicle: gum acacia): 111 % of control
- T/C (dose: 3.0 mg/kg/injection, schedule: Q01DX009 (ip), vehicle: gum acacia): 111 % of control
- T/C (dose: 3.12 mg/kg/injection, schedule: Q04DX002 (ip), vehicle: gum acacia): 100 % of control
- T/C (dose: 6.25 mg/kg/injection, schedule: Q01DX005 (ip), vehicle: gum acacia): 95 % of control
- T/C (dose: 6.25 mg/kg/injection, schedule: Q04DX002 (ip), vehicle: gum acacia): 95 % of control
- T/C (dose: 12.5 mg/kg/injection, schedule: Q04DX002 (ip), vehicle: gum acacia): 111 % of control and 92 % of control
